# From patent publication US20250205204A1, “Transcription Factor Brn2 Inhibitory Compounds for Use as Therapeutics” (The University of British Columbia, priority 2021, published 2025)
# Target: T1, BRN2 (Homo sapiens, UniProt P20265)
# T1 sequence (P20265 1-443): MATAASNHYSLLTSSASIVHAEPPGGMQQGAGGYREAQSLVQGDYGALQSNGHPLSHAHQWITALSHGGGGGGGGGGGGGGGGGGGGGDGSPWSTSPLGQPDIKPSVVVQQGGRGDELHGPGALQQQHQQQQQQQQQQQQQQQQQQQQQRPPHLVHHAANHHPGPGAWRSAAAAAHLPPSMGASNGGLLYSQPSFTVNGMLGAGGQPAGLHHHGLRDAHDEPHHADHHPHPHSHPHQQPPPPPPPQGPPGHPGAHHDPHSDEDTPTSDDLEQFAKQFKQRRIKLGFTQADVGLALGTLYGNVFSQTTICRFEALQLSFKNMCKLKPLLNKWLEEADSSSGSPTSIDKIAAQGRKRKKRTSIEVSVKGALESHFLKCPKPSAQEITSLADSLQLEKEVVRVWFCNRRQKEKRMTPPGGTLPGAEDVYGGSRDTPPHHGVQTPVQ
# Experiment: Drug Affinity Responsive Target Stability (DARTS) assay
# Details: printed in BLI binding column; 42D^ENZR lysate
# Method: Step 2: Drug Affinity Responsive Target Stability (DARTS) Assay
# This in cell assay provides a yes/no answer to direct interaction between BRN2 inhibitor and protein.
# 1) Prepare and place the following on ice: • Pronase • TNC 10× • 500 mM Tris-HCl (pH 8.0) • 500 mM NaCl, 100 mM CaCl2 • DMSO • Drug • 10 mL NP40+Protease inhibitor+Phosphatase inhibitor solution (can store in 4° C. and use for up to 4 weeks): • 2 mL NP40 5× • 8 mL ddH2O • 1 PhosphoSTOP™ pill • 200 uL protease inhibitor 50×
# 2) Remove the growth medium from the cell plate (42D^ENZR) and add 10 mL of cold PBS/vanadate.
# 3) Scrape the cells. Remove the PBS-cell solution and add in a falcon tube.
# 4) Name a new 1.5 ml Eppendorf tube and put on ice to pre-chill.
# 5) Centrifuge the cells at 1500 for 5 minutes at 4° C. Remove supernatant and re-suspend the cells in 600 uL NP40 lysis buffer by pipetting up and down. If the cell pellet is small use less volume, for example 300 μl)
# 6) Transfer the lysing cells into the pre-chilled Eppendorf tube. Incubate on ice for 20 minutes. If not continuing the DARTS on the same day, you can put the lysate in −30 and work on it later.
# Preparing Cell Lysates for DARTS:
# 7) Centrifuge the tube at maximum speed for 25-30 minutes at 4° C.
# 8) Discard the pellet (either transfer the supernatant in a new tube or just take out the pellet). […]
# 20) The samples are ready for Western blot gel running. […]
structure (smiles),measurement,value
"O=C1/C(=N\Nc2nc3ccccc3s2)Cc2ccccc21 [7-62, (Z)-2-(2-(benzo[d]thiazol-2-yl)hydrazineylidene)-2,3-dihydro-1H-inden-1-one]",binding observed using DARTS assay,Strong binding observed using DARTS assay
